Laboratory results from patent publication US7846928B2, “Substituted pyrazolopyridines and salts thereof, pharmaceutical compositions comprising same, methods of preparing same and uses of same” (Bayer Schering Pharma AG, priority 2006, dated 2010).

Tests used:
Tie2 [1] = molecular target: T1, Tie2 (Homo sapiens, UniProt Q02763); test: Tie-2-Kinase HTRF-Assay without kinase preactivation (assay 2); assay type: biochemical; design: fusion protein of GST and the intracellular domains of Tie-2; GST; made in house; host or cells: insect cells (Hi-5); settings: GST-Tie-2 without preactivation, 10 μM ATP; pIC50 = -log IC50 molar
Description: Tie2-inhibitory activity of compounds of the present invention was quantified employing two Tie2 HTRF assay as described in the following paragraphs.
A recombinant fusion protein of GST and the intracellular domains of Tie-2, expressed in insect cells (Hi-5) and purified by Glutathion-Sepharose affinity chromatography was used as kinase. Alternatively, commercially available GST-Tie2-fusion protein (Upstate Biotechnology, Dundee, Scotland) can be used As substrate for the kinase reaction the biotinylated peptide biotin-Ahx-EPKDDAYPLYSDFG (C-terminus in amid form) was used which can be purchased e.g. from the company Biosynthan GmbH (Berlin-Buch, Germany). Detection of phosphorylated product is achieved specifically by a trimeric detection complex consisting of the phosphorylated substrate, streptavidin-XLent (SA-XLent) which binds to biotin, and Europium Cryptate-labeled anti-phosphotyrosine antibody PT66 which binds to phosphorylated tyrosine.
Tie-2 (3.5 ng/measurement point) was incubated for 60 min at 22° C. in the presence of 10 μM adenosine-tri-phosphate (ATP) and 1 μM substrate peptide (biotin-Ahx-EPKDDAYPLYSDFG-NH2) with different concentrations of test compounds (0 μM and concentrations in the range 0.001-20 μM) in 5 μl assay buffer [50 mM Hepes/NaOH pH 7, 10 mM MgCl2, 0.5 mM MnCl2, 1.0 mM dithiothreitol, 0.01% NP40, protease inhibitor mixture (“Complete w/o EDTA” from Roche, 1 tablet per 2.5 ml), 1% (v/v) dimethylsulfoxide]. The reaction was stopped by the addition of 5 μl of an aqueous buffer (25 mM Hepes/NaOH pH 7.5, 0.28% (w/v) bovine serum albumin) containing EDTA (90 mM) and the HTRF (Homogeneous Time Resolved Fluorescence) detection reagents streptavidine-XLent (0.2 μM, from Cis Biointernational, Marcoule, France) and PT66-Eu-Chelate (0.3 ng/μl; a europium-chelate labelled anti-phospho-tyrosine antibody from Perkin Elmer).
The resulting mixture was incubated 1 h at 22° C. to allow the binding of the biotinylated phosphorylated peptide to the streptavidine-XLent and the PT66-Eu-Chelate. Subsequently the amount of phosphorylated substrate peptide was evaluated by measurement of the resonance energy transfer from the PT66-Eu-Chelate to the streptavidine-XLent. Therefore, the fluorescence emissions at 620 nm and 665 nm after excitation at 350 nm was measured in a HTRF reader, e.g. a Rubystar (BMG Labtechnologies, Offenburg, Germany) or a Viewlux (Perkin-Elmer). The ratio of the emissions at 665 nm and at […] was taken as the measure for the amount of phosphorylated substrate peptide. The data were normalised (enzyme reaction without inhibitor=0% inhibition, all other assay components but no enzyme=100% inhibition) and IC50 values were calculated by a 4 parameter fit using an inhouse software.
Target sequence in this assay (Q02763 770-1124 limits assumed): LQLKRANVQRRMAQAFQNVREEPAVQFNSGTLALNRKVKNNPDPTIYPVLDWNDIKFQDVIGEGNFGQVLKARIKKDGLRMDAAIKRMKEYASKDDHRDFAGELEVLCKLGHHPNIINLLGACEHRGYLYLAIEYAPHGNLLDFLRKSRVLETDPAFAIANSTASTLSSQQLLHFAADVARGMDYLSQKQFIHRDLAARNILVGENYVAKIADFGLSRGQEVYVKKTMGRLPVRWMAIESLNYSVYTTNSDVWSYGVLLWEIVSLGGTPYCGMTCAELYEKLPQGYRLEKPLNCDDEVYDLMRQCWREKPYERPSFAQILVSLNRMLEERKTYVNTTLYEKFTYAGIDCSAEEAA

Tie2 [2] = molecular target: T1, Tie2; test: Tie2 ELISA assay (assay 1): cellular Tie2 autophosphorylation in Tie2-transfected CHO cells stimulated by angiopoietin-2; assay type: cell-based; design: expressed in transfected cells; host or cells: CHO (DHFR-deficient), stably transfected: CHO Tie2/DHFR; settings: CHO Tie2/DHFR cells, Ang2 stimulated, Tie2 autophosphorylation sandwich-ELISA; pIC50 = -log IC50 molar; read-out: Tie 2 activity (assay 1)
Method: Cellular activity of compounds of the present invention as inhibitors of Tie2 kinase activity was measured employing a Tie2 ELISA assay as described in the following paragraphs. Herein CHO cell-cultures, which are stably transfected by known techniques with Tie2 using DHFR deficiency as selection marker, are stimulated by angiopoietin-2. The specific autophosphorylation of Tie2 receptors is quantified with a sandwich-ELISA using anti-Tie2 antibodies for catch and anti-phosphotyrosine antibodies coupled to HRP for detection.
• 96 well tissue culture plate, sterile, Greiner • 96 well FluoroNunc plate MaxiSorp Surface C, Nunc • 96 well plate polypropylene for compound dilution in DMSO • CHO Tie2/DHFR (transfected cells) • PBS−; PBS++, DMSO • MEM alpha Medium with Glutamax-I without Ribonucleosides and • Deoxyribonucleosides (Gibco #32561-029) • with 10% FCS after dialysis! and 1% PenStrep • Lysis buffer: 1 Tablet “Complete” protease inhibitor • 1 cap Vanadate (1 mL>40 mg/mL; working solution 2 mM) • ad 50 mL with Duschl-Puffer • pH 7.6 • Anti-Tie2-antibody 1:425 in Coating Buffer pH 9.6 • Stock solution: 1.275 mg/mL>working: 3 μg/mL • PBST: 2 bottles PBS(10×)+10 ml Tween, fill up with VE-water • RotiBlock 1:10 in VE-water • Anti-Phosphotyrosine HRP-Conjugated 1:10000 in 3% TopBlock • 3% TopBlock in PBST • BM Chemiluminescence ELISA Substrate (POD) • solution B1:100 solution A • SF9 cell culture medium • Ang2-Fc in SF9 cell culture medium Cell Experiment: • Dispense 5×10^4 cells/well/98 μL in 96 well tissue culture plate • Incubate at 37° C./5% CO2 • After 24 h add compounds according to desired concentrations • Add also to control and stimulated values without compounds 2 μL DMSO • And mix for a few min at room temperature • Add 100 μL Ang2-Fc to all wells except control, which receives insect medium • Incubate 20 min at 37° C. • Wash 3× with PBS++ • Add 100 μl Lysis buffer/well and shake a couple of min at room temperature • Store lysates at 20° C. before utilizing for the ELISA Performance of Sandwich-ELISA • Coat 96 well FluoroNunc Plate MaxiSorp Surface C with anti-Tie2 mAb • 1:425 in Coating buffer pH 9.6; 100 μL/well overnight at 4° C. • Wash 2× with PBST • Block plates with 250 μL/well RotiBlock 1:10 in VE-water • Incubate for 2 h at room temperature or overnight at 4° C. shaking • Wash 2× in PBST • Add thawed lysates to wells and incubate overnight shaking at 4° C. • Wash 2× with PBST • Add 100 μL/well anti-Phosphotyrosine HRP-Conjugated 1:10000 in 3% • TopBlock (3% TopBlock in PBST) and incubate overnight under shaking • Wash 6× with PBST • Add 100 μL/well BM Chemiluminescence ELISA Substrate (POD) • solutions 1 und 2 (1:100) • Determine luminescence with the LumiCount. Assay 2: Tie-2-Kinase HTRF-Assay without Kinase Preactivation
Target sequence in this assay (Q02763 23-1124): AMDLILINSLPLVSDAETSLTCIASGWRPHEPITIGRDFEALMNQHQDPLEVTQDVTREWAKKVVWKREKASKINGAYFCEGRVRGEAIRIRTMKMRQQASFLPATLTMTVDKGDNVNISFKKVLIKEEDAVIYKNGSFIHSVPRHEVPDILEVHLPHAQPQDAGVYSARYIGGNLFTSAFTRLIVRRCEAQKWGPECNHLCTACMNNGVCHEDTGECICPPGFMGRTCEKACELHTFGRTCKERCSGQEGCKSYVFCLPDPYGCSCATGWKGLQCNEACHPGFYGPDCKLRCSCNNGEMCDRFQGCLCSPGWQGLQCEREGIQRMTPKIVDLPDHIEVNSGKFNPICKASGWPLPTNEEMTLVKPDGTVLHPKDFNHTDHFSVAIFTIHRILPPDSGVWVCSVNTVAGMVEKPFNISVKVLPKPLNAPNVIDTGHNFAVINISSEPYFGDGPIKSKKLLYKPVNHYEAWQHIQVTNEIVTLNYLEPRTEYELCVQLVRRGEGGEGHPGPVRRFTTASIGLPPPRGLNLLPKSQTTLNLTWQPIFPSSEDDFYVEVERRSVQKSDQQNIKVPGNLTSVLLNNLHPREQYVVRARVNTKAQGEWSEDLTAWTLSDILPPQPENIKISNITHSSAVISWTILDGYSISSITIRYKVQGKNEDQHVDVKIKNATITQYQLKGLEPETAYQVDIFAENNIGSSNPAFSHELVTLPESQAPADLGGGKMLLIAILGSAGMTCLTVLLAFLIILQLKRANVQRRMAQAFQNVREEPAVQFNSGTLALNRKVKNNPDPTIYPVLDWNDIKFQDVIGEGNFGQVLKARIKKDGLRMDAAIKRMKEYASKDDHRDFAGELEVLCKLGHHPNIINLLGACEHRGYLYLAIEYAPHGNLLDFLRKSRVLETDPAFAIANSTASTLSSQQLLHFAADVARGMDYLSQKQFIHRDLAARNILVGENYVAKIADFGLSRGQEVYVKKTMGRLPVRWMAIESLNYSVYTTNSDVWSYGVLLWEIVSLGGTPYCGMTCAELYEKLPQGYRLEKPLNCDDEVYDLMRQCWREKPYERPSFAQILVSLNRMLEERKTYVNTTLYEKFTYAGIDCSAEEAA

| melting point | IC50 (Tie2 [1]) | IC50 (Tie2 [2]) | Structure (SMILES) |
| --- | --- | --- | --- |
| 236 °C | – | – | Cc1cc(-c2ccc(NC(=O)Nc3cc(C(F)(F)F)ccc3N3CCCC3)cc2)c2cnn(C)c2n1 [2.8, 1-[4-(1,6-Dimethyl-1H-pyrazolo[3,4-b]pyridin-4-yl)-phenyl]-3-(2-pyrrolidin-1-yl-5-trifluoromethyl-phenyl)-urea] |
| – | < 0.501 µM | < 0.501 µM | Cn1ncc2c(-c3ccc(NC(=O)Nc4cccc(C(F)(F)F)c4)cc3)cc(C3(C(=O)N4CCCC4)CC3)nc21 [1.27, 1-(4-{1-Methyl-6-[1-(pyrrolidine-1-carbonyl)-cyclopropyl]-1H-pyrazolo[3,4-b]pyridin-4-yl}-phenyl)-3-(3-trifluoromethyl-phenyl)-urea] |
| – | 1 to 10 µM | < 0.501 µM | CC(C)c1cc(-c2ccc(NC(=O)Nc3cccc(C(F)(F)F)c3)cc2)c2cnn(CCCN3CCOCC3)c2n1 [1.25, 1-{4-[6-Isopropyl-1-(3-morpholin-4-yl-propyl)-1H-pyrazolo[3,4-b]pyridin-4-yl]-phenyl}-3-(3-trifluoromethyl-phenyl)-urea] |
